Like-named read-outs stand apart in the source and are kept apart here.
Key:
NDM-1 [1] = target: T1, NDM-1 (Klebsiella pneumoniae, UniProt C7C422); assay type: biochemical; conditions: read-out: Ki, Imipenem
VIM-1 = target: T2, VIM-1 (Pseudomonas aeruginosa, UniProt A0A0F7KYQ8); assay type: biochemical; conditions: cleavage of nitrocefin (200 uM) by VIM-1 supernatant
T2 construct: made in house; host or cells: ECM6711 strain carrying pUCP24-VIM-1 plasmid (culture supernatant, not purified)

OXA-48 = OXA-48 (Klebsiella pneumoniae, UniProt Q6XEC0); assay: Inhibition of purified class D carbapenemase, biapenem substrate; assay type: biochemical; conditions: purified enzyme
Sequence of OXA-48 (Q6XEC0 23-265 limits assumed): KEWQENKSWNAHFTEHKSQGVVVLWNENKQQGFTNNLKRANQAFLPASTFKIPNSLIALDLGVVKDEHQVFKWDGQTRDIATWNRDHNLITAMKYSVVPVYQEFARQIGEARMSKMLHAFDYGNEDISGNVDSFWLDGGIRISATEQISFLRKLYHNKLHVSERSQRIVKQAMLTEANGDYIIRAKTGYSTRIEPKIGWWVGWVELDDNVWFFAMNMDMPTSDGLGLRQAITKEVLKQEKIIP

NDM-1 [2] = target: T1, NDM-1; assay type: biochemical; conditions: read-out: Ki NDM-1, Imipenem
SHV-12 = SHV-12 (Klebsiella pneumoniae, UniProt P0AD64, E235K/G234S/L31Q); assay: Inhibition of nitrocefin cleavage by purified enzyme; assay type: biochemical; conditions: nitrocefin substrate; read-out: Ki (SHV-12, NCF)
Sequence of SHV-12 (P0AD64 22-286 L31Q/G234S/E235K): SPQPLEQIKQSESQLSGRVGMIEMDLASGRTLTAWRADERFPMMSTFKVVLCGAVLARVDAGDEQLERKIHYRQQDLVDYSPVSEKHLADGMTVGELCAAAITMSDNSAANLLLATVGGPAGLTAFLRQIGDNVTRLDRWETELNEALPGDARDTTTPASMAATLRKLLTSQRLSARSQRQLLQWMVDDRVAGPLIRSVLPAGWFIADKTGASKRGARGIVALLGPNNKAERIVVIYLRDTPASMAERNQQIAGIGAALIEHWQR
Method: Purified enzymes were mixed with various concentrations of inhibitors in reaction buffer and incubated for 10 min at room temperature. Nitrocefin was added and substrate cleavage profiles were recorded at 490 nm every 10 sec for 10 min.

AB1144 (NDM-1) = assay: Carbapenem potentiation against clinical isolate; assay type: cell-based; conditions: Acinetobacter baumannii
Excerpt: (§1) The results are present in Table 6.
(§2) The results are present in Table 7.

[3] = tested on: EC1064 (NDM-1, CMY-6, CTX-M-15); assay: Carbapenem potentiation against clinical isolate; assay type: cell-based; conditions: Escherichia coli, strain EC1064
Excerpt: as §1, §2

[4] = tested on: KP1004 (KPC-2, TEM-1, SHV-11); assay: Carbapenem potentiation against clinical isolate; assay type: cell-based; conditions: Klebsiella pneumoniae, strain KP1004
Excerpt: as §1, §2

KP1014 (VIM-1) = assay: Carbapenem potentiation against clinical isolate; assay type: cell-based; conditions: Klebsiella pneumoniae, strain KP1014
Excerpt: as §1, §2

KP1054 (VIM-1, SHV-11) = assay: Carbapenem potentiation against clinical isolate; assay type: cell-based; conditions: Klebsiella pneumoniae, strain KP1054
Excerpt: as §1, §2

[5] = tested on: KP1064 (KPC-2, SHV-11, TEM-1); assay: Carbapenem potentiation against clinical isolate; assay type: cell-based; conditions: Klebsiella pneumoniae, strain KP1064
Excerpt: as §1, §2

[6] = tested on: KP1074 (KPC-3, SHV-11, TEM); assay: Carbapenem potentiation against clinical isolate; assay type: cell-based; conditions: Klebsiella pneumoniae, strain KP1074
Excerpt: as §1, §2

[7] = tested on: KP1081 (NDM-1, TEM-1, SHV-11, CMY-6, CTX-M-15); assay: Carbapenem potentiation against clinical isolate; assay type: cell-based; conditions: Klebsiella pneumoniae, strain KP1081
Excerpt: as §1, §2

[8] = tested on: KP1084 (KPC-3, SHV-11, TEM-1); assay: Carbapenem potentiation against clinical isolate; assay type: cell-based; conditions: Klebsiella pneumoniae, strain KP1084
Excerpt: as §1, §2

[9] = tested on: KP1086 (TEM, SHV, CTX-M-15, OXA-48); assay: Carbapenem potentiation against clinical isolate; assay type: cell-based; conditions: Klebsiella pneumoniae, strain KP1086
Excerpt: as §1, §2

[10] = tested on: KP1087 (KPC-2, CTX-M-15, SHV-11, TEM-1); assay: Carbapenem potentiation against clinical isolate; assay type: cell-based; conditions: Klebsiella pneumoniae, strain KP1087
Excerpt: as §1, §2

EA1019 (SHV-5, VIM-1) = assay: Carbapenem potentiation against clinical isolate; assay type: cell-based, Enterobacter aerogenes; conditions: Klebsiella aerogenes; strain EA1019; read-out: Doripenem MIC Alone
Excerpt: as §1, §2

T1 sequence (C7C422 29-270 limits assumed): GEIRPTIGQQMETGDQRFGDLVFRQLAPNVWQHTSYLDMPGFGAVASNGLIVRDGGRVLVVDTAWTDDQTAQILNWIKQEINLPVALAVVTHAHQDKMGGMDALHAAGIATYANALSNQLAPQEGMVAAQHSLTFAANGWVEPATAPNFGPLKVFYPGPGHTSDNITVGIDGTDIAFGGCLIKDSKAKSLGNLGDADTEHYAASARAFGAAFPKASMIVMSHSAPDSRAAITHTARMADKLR

Molecule `NC(=O)CCS[C@H]1Cc2cccc(C(=O)O)c2OB1O` [Compound 9, (R)-3-(3-amino-3-oxopropylthio)-2-hydroxy-3,4-dihydro-2H-benzo[e][1,2]oxaborinine-8-carboxylic acid] has a Ki (NDM-1 [1]) greater than 0.1 µM, an IC50 (VIM-1) of less than 1 µM and a Ki (OXA-48) of 0.01 to 0.1 µM. It also gave a Ki (NDM-1 [2]) greater than 0.1 µM and a Ki (SHV-12) of 0.1 to 1 µM.

Molecule `CC(=N)S[C@H]1Cc2cccc(C(=O)O)c2OB1O` [Compound 10, (R)-2-hydroxy-3-(1-iminoethylthio)-3,4-dihydro-2H-benzo[e][1,2]oxaborinine-8-carboxylic acid] has a Ki (NDM-1 [1]) of 0.01 to 0.1 µM, an IC50 (VIM-1) of no less than 1 µM and a Ki (NDM-1 [2]) of 0.01 to 0.1 µM.

In the case of `O=C(O)c1cccc2c1OB(O)[C@@H](Sc1nccs1)C2` [Compound 11, (R)-2-hydroxy-3-(thiazol-2-ylthio)-3,4-dihydro-2H-benzo[e][1,2]oxaborinine-8-carboxylic acid], the Ki (NDM-1 [1]) is reported as greater than 0.1 µM, the IC50 (VIM-1) is reported as no less than 1 µM and the Ki (NDM-1 [2]) is reported as greater than 0.1 µM. It also gave a Ki (SHV-12) of less than 0.1 µM.

Molecule `O=C(O)c1cccc2c1OB(O)[C@@H](Sc1c[nH]nn1)C2` [Compound 12, (R)-3-(1H-1,2,3-triazol-4-ylthio)-2-hydroxy-3,4-dihydro-2H-benzo[e][1,2]oxaborinine-8-carboxylic acid] has a Ki (NDM-1 [1]) of 0.01 to 0.1 µM, an IC50 (VIM-1) of less than 1 µM and a Ki (NDM-1 [2]) of 0.01 to 0.1 µM.

`O=C(O)c1cccc2c1OB(O)[C@@H](OCc1ccccc1)C2` [Compound 13, (R)-3-(benzyloxy)-2-hydroxy-3,4-dihydro-2H-benzo[e][1,2]oxaborinine-8-carboxylic acid] was tested, and the Ki (NDM-1 [1]) was 0.01 to 0.1 µM, the IC50 (VIM-1) was less than 1 µM and the Ki (NDM-1 [2]) was 0.01 to 0.1 µM.

Work on `Nn1cnnc1S[C@H]1Cc2cccc(C(=O)O)c2OB1O` [Compound 14, (R)-3-(4-amino-4H-1,2,4-triazol-3-ylthio)-2-hydroxy-3,4-dihydro-2H-benzo[e][1,2]oxaborinine-8-carboxylic acid] yielded an IC50 (VIM-1) of less than 1 µM and a Ki (SHV-12) of less than 0.1 µM.

For `C[C@@H](O)[C@H]1C(=O)N2C(C(=O)O)=C(S[C@@H]3CN[C@H](CNS(N)(=O)=O)C3)[C@H](C)[C@H]12` [Doripenem], the MIC (AB1144 (NDM-1); strain AB1144, read-out: Doripenem MIC Alone) was greater than 10 µg/mL, the MIC ([3]; read-out: Doripenem MIC Alone) was greater than 10 µg/mL and the MIC ([4]; read-out: Doripenem MIC Alone) was 1 to 10 µg/mL. It also gave an MIC (KP1014 (VIM-1); read-out: Doripenem MIC Alone) greater than 10 µg/mL, an MIC (KP1054 (VIM-1, SHV-11); read-out: Doripenem MIC Alone) greater than 10 µg/mL and an MIC ([5]; read-out: Doripenem MIC Alone) greater than 10 µg/mL. For the same molecule, the MIC ([6]; read-out: Doripenem MIC Alone) was greater than 10 µg/mL, the MIC ([7]; read-out: Doripenem MIC Alone) was greater than 10 µg/mL and the MIC ([8]; read-out: Doripenem MIC Alone) was greater than 10 µg/mL. For the same molecule, the MIC ([9]; read-out: Doripenem MIC Alone) was greater than 10 µg/mL, the MIC ([10]; read-out: Doripenem MIC Alone) was greater than 10 µg/mL and the MIC (EA1019 (SHV-5, VIM-1)) was greater than 10 µg/mL.

`C[C@@H](O)[C@H]1C(=O)N2C(C(=O)O)=C(SCCN=CN)C[C@H]12` [Imipenem] gave an MIC (AB1144 (NDM-1); read-out: Imipenem MIC Alone) greater than 10 µg/mL, an MIC ([3]; read-out: Imipenem MIC Alone) greater than 10 µg/mL and an MIC ([4]; read-out: Imipenem MIC Alone) greater than 10 µg/mL. The MIC (KP1014 (VIM-1); read-out: Imipenem MIC Alone) was greater than 10 µg/mL, the MIC (KP1054 (VIM-1, SHV-11); read-out: Imipenem MIC Alone) was 1 to 10 µg/mL and the MIC ([5]; read-out: Imipenem MIC Alone) was greater than 10 µg/mL. It also gave an MIC ([6]; read-out: Imipenem MIC Alone) greater than 10 µg/mL, an MIC ([7]; read-out: Imipenem MIC Alone) greater than 10 µg/mL and an MIC ([8]; read-out: Imipenem MIC Alone) greater than 10 µg/mL. The MIC ([9]; read-out: Imipenem MIC Alone) was greater than 10 µg/mL and the MIC ([10]; read-out: Imipenem MIC Alone) was 1 to 10 µg/mL.

Molecule `C[C@@H](O)[C@H]1C(=O)N2C(C(=O)O)=C(S[C@@H]3CN[C@H](C(=O)N(C)C)C3)[C@H](C)[C@H]12` [Meropenem] has an MIC (AB1144 (NDM-1); strain AB1144, read-out: Meropenem MIC Alone) greater than 10 µg/mL, an MIC ([3]; read-out: Meropenem MIC Alone) greater than 10 µg/mL and an MIC ([4]; read-out: Meropenem MIC Alone) of 1 to 10 µg/mL. For the same molecule, the MIC (KP1014 (VIM-1); read-out: Meropenem MIC Alone) was 1 to 10 µg/mL, the MIC (KP1054 (VIM-1, SHV-11); read-out: Meropenem MIC Alone) was greater than 10 µg/mL and the MIC ([5]; read-out: Meropenem MIC Alone) was greater than 10 µg/mL. It also gave an MIC ([6]; read-out: Meropenem MIC Alone) greater than 10 µg/mL, an MIC ([7]; read-out: Meropenem MIC Alone) greater than 10 µg/mL and an MIC ([8]; read-out: Meropenem MIC Alone) greater than 10 µg/mL. For the same molecule, the MIC ([9]; read-out: Meropenem MIC Alone) was greater than 10 µg/mL and the MIC ([10]; read-out: Meropenem MIC Alone) was greater than 10 µg/mL.

Reference: US9241947B2, “Boronic acid derivatives and therapeutic uses thereof” (priority 2013, dated 2016)
